Data taken from PubChem BioAssay AID1963967 (Molecular Pharmacology Branch, DTP, NCI, 2024).

System: 855422-203-R-J1-PDC spheroids with HUVEC/MSC, viability
Assay: Anticancer human tumor 855422-203-R-J1-PDC patient-derived bladder carcinoma cell line growth inhibition [PI3K]
Conditions: for IC50: curve of first compound; for viability, T/C: stronger effect = lower value
How it was run: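 Viability of mixed-cell spheroids was determined after exposure to pairwise combinations, one partner being inavolisib, alpelisib, duvelisib or copanlisib. Highest tested concentration matched clinical Cmax where known and 10 microM where not, descending in half-log steps.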

[1] = second compound 0.0316 µM, first compound 0.0316 µM
[2] = second compound 0.0316 µM, first compound 0.1 µM
[3] = second compound 0.0316 µM, first compound 0.316 µM
[4] = second compound 0.0316 µM, first compound 1 µM
[5] = second compound 0.0316 µM, first compound 3.16 µM
[6] = second compound 0.0316 µM, first compound 10 µM
[7] = second compound 0.1 µM, first compound 0.0316 µM
[8] = second compound 0.1 µM, first compound 0.1 µM
[9] = second compound 0.1 µM, first compound 0.316 µM
[10] = second compound 0.1 µM, first compound 1 µM
[11] = second compound 0.1 µM, first compound 3.16 µM
[12] = second compound 0.1 µM, first compound 10 µM
[13] = second compound 0.316 µM, first compound 0.0316 µM
[14] = second compound 0.316 µM, first compound 0.1 µM
[15] = second compound 0.316 µM, first compound 0.316 µM
[16] = second compound 0.316 µM, first compound 1 µM
[17] = second compound 0.316 µM, first compound 3.16 µM
[18] = second compound 0.316 µM, first compound 10 µM
[19] = second compound 1 µM, first compound 0.0316 µM
[20] = second compound 1 µM, first compound 0.1 µM
[21] = second compound 1 µM, first compound 0.316 µM
[22] = second compound 1 µM, first compound 1 µM
[23] = second compound 1 µM, first compound 3.16 µM
[24] = second compound 1 µM, first compound 10 µM
[25] = second compound 3.16 µM, first compound 0.0316 µM
[26] = second compound 3.16 µM, first compound 0.1 µM
[27] = second compound 3.16 µM, first compound 0.316 µM
[28] = second compound 3.16 µM, first compound 1 µM
[29] = second compound 3.16 µM, first compound 3.16 µM
[30] = second compound 3.16 µM, first compound 10 µM
[31] = second compound 10 µM, first compound 0.0316 µM
[32] = second compound 10 µM, first compound 0.1 µM
[33] = second compound 10 µM, first compound 0.316 µM
[34] = second compound 10 µM, first compound 1 µM
[35] = second compound 10 µM, first compound 3.16 µM
[36] = second compound 10 µM, first compound 10 µM
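Note: agents incubated with spheroids for one week before read-out.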
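Throughout, for viability, T/C: 100% = DMSO vehicle-treated control wells.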

CCCS(=O)(=O)Nc1ccc(F)c(C(=O)c2c[nH]c3ncc(-c4ccc(Cl)cc4)cc23)c1F + Cc1nc(NC(=O)N2CCCC2C(N)=O)sc1-c1ccnc(C(C)(C)C(F)(F)F)c1
IC50 (second compound 0.0316 µM): 3.91 µM
IC50 (second compound 0.1 µM): 3.9 µM
IC50 (second compound 0.316 µM): 4.42 µM
IC50 (second compound 1 µM): 3.53 µM
IC50 (second compound 3.16 µM): < 0.0316 µM
IC50 (second compound 10 µM): < 0.0316 µM
viability, T/C [1]: 97.7%
viability, T/C [2]: 89.5%
viability, T/C [3]: 109%
viability, T/C [4]: 82.5%
viability, T/C [5]: 62.3%
viability, T/C [6]: 0.1%
viability, T/C [7]: 88.2%
viability, T/C [8]: 90.2%
viability, T/C [9]: 100%
viability, T/C [10]: 90.7%
viability, T/C [11]: 61.1%
viability, T/C [12]: 0.16%
viability, T/C [13]: 86.4%
viability, T/C [14]: 87.4%
viability, T/C [15]: 99.1%
viability, T/C [16]: 85.3%
viability, T/C [17]: 70.8%
viability, T/C [18]: 0.13%
viability, T/C [19]: 71.4%
viability, T/C [20]: 74%
viability, T/C [21]: 68.9%
viability, T/C [22]: 72.8%
viability, T/C [23]: 53.6%
viability, T/C [24]: 0.11%
viability, T/C [25]: 45.3%
viability, T/C [26]: 46.2%
viability, T/C [27]: 38.4%
viability, T/C [28]: 44%
viability, T/C [29]: 25.9%
viability, T/C [30]: 0.29%
viability, T/C [31]: 25.3%
viability, T/C [32]: 17.9%
viability, T/C [33]: 23.2%
viability, T/C [34]: 23.5%
viability, T/C [35]: 13.6%
viability, T/C [36]: 0.19%

C[C@@H](NC(=O)c1ncnc(N)c1Cl)c1ncc(C(=O)Nc2cc(C(F)(F)F)c(Cl)cn2)s1 + Cc1nc(NC(=O)N2CCCC2C(N)=O)sc1-c1ccnc(C(C)(C)C(F)(F)F)c1
IC50 (second compound 0.0316 µM): > 10 µM
IC50 (second compound 0.1 µM): > 10 µM
IC50 (second compound 0.316 µM): > 10 µM
IC50 (second compound 1 µM): 4.57 µM
IC50 (second compound 3.16 µM): < 0.0316 µM
IC50 (second compound 10 µM): < 0.0316 µM
viability, T/C [1]: 97.8%
viability, T/C [2]: 85.9%
viability, T/C [3]: 118%
viability, T/C [4]: 100%
viability, T/C [5]: 118%
viability, T/C [6]: 109%
viability, T/C [7]: 72.7%
viability, T/C [8]: 86.8%
viability, T/C [9]: 104%
viability, T/C [10]: 91.2%
viability, T/C [11]: 111%
viability, T/C [12]: 93.4%
viability, T/C [13]: 73.1%
viability, T/C [14]: 85.9%
viability, T/C [15]: 94.3%
viability, T/C [16]: 85.8%
viability, T/C [17]: 94.6%
viability, T/C [18]: 60.9%
viability, T/C [19]: 70.1%
viability, T/C [20]: 67.2%
viability, T/C [21]: 51.2%
viability, T/C [22]: 68.6%
viability, T/C [23]: 62.3%
viability, T/C [24]: 23.4%
viability, T/C [25]: 39.3%
viability, T/C [26]: 44.6%
viability, T/C [27]: 30.9%
viability, T/C [28]: 42.8%
viability, T/C [29]: 33.5%
viability, T/C [30]: 14.3%
viability, T/C [31]: 25%
viability, T/C [32]: 18.9%
viability, T/C [33]: 24.3%
viability, T/C [34]: 18.8%
viability, T/C [35]: 11.7%
viability, T/C [36]: 4.33%

Cn1ncnc1[C@H]1c2n[nH]c(=O)c3cc(F)cc(c23)N[C@@H]1c1ccc(F)cc1 + Cc1nc(NC(=O)N2CCCC2C(N)=O)sc1-c1ccnc(C(C)(C)C(F)(F)F)c1
IC50 (second compound 0.0316 µM): > 0.1 µM
IC50 (second compound 0.1 µM): > 0.1 µM
IC50 (second compound 0.316 µM): > 0.1 µM
IC50 (second compound 1 µM): > 0.1 µM
IC50 (second compound 3.16 µM): 0.000903 µM
IC50 (second compound 10 µM): < 0.000316 µM
viability, T/C (second compound 0.0316 µM, first compound 0.000316 µM): 112%
viability, T/C (second compound 0.0316 µM, first compound 0.001 µM): 92.8%
viability, T/C (second compound 0.0316 µM, first compound 0.00316 µM): 112%
viability, T/C (second compound 0.0316 µM, first compound 0.01 µM): 96.8%
viability, T/C [1]: 105%
viability, T/C [2]: 109%
viability, T/C (second compound 0.1 µM, first compound 0.000316 µM): 105%
viability, T/C (second compound 0.1 µM, first compound 0.001 µM): 102%
viability, T/C (second compound 0.1 µM, first compound 0.00316 µM): 102%
viability, T/C (second compound 0.1 µM, first compound 0.01 µM): 101%
viability, T/C [7]: 101%
viability, T/C [8]: 105%
viability, T/C (second compound 0.316 µM, first compound 0.000316 µM): 92.9%
viability, T/C (second compound 0.316 µM, first compound 0.001 µM): 93.8%
viability, T/C (second compound 0.316 µM, first compound 0.00316 µM): 95.8%
viability, T/C (second compound 0.316 µM, first compound 0.01 µM): 94.7%
viability, T/C [13]: 98.6%
viability, T/C [14]: 97.2%
viability, T/C (second compound 1 µM, first compound 0.000316 µM): 72.7%
viability, T/C (second compound 1 µM, first compound 0.001 µM): 74%
viability, T/C (second compound 1 µM, first compound 0.00316 µM): 79.2%
viability, T/C (second compound 1 µM, first compound 0.01 µM): 75.5%
viability, T/C [19]: 79.4%
viability, T/C [20]: 68.3%
viability, T/C (second compound 3.16 µM, first compound 0.000316 µM): 51.6%
viability, T/C (second compound 3.16 µM, first compound 0.001 µM): 49.8%
viability, T/C (second compound 3.16 µM, first compound 0.00316 µM): 47.1%
viability, T/C (second compound 3.16 µM, first compound 0.01 µM): 47.7%
viability, T/C [25]: 49.1%
viability, T/C [26]: 44.6%
viability, T/C (second compound 10 µM, first compound 0.000316 µM): 25.6%
viability, T/C (second compound 10 µM, first compound 0.001 µM): 25.1%
viability, T/C (second compound 10 µM, first compound 0.00316 µM): 22.2%
viability, T/C (second compound 10 µM, first compound 0.01 µM): 27.8%
viability, T/C [31]: 25.1%
viability, T/C [32]: 21.3%
